Laboratory results reported in US4591589A, “2-aryl pyrazolo[4,3-c]cinnolin-3-ones” (Roussel Uclaf, priority 1985, dated 1986).
Structures can show the parent of a compound that is named as a salt.

Assays:
mice [1] = assay: Acute toxicity (lethal dose LD0); format: in vivo; conditions: oral
Description: The lethal dose LD0 of the compound of Example 1 was evaluated after administration orally in mice. The maximum dose not causing any mortality in 8 days was called the LD0.

benzodiazepine receptors = assay: Affinity for benzodiazepine receptors (displacement of 3H diazepam, rat brain cortex homogenate); format: binding; conditions: rat brain cortices; 3H diazepam 10^-9 M, 30 minutes at 0° C., pH 7.4; read-out: Cl 50 (concentration inhibiting by 50% the specific bonding of 3H diazepam)
Description: The cortices removed from the brains of male rats weighing an average of 150 g were homogenized to one twentieth part (weight/volume) in 0.32M sucrose. After centrifuging the homogenate at 1000 g for 10 minutes at 0° C., the supernatant layer was centrifuged at 30,000 g for 20 minutes at +4° C. The residue was suspended in 20 volumes of Tris HCl 50 mM buffer with a pH of 7.4 and centrifuged at 30,000 g for 20 minutes at +4° C. The new residue obtained was suspended in 50 ml of Krebs Tris HCl buffer, pH 7.4.
2 ml of this suspension in the presence of ^3 H diazepam at a concentration of 10^-9 M was incubated for 30 minutes at 0° C., alone, and with increasing concentrations of the product under test, or to determine the non-specific fixation, with non-radio-active diazepam at a concentration of 10^-6 M. The incubated suspensions were filtered on Whatman GF/C and the filters were washed twice with 5 ml of Krebs Tris HCl buffer, pH 7.4, at 0° C. The radioactivity of the filters was measured by liquid scintillation. The activity of the product was expressed by CI 50: concentration inhibiting by 50% the specific bonding of ^3 H diazepam, determined graphically.

mice [2] = assay: Plate test in mice (electric shocks); format: in vivo; conditions: for anxiety reducing activity (plate test): conclusion in words, mice (Example 1 also rats)
Description: (§1) The apparatus (Apelab) and the method used are described by BOISSER et al [European J. Pharmacol., 1968, Vol. 4, p. 145]. The plates were linked to a stimulator (U. Sachs, Roucaire) which enabled electric shocks of 120 volts to be delivered during 0.5 seconds. The tests were carried out on groups of 10 mice or rats half an hour after oral administration of the compound studied and each animal has put individually on the apparatus. After 15 seconds of free exploration, it was submitted to an electric shock each time it passed from one plate to another, a minimum of 3 seconds being observed between two shocks. The number of shocks delivered was counted over 1 minute and the results obtained were compared to those observed in the control animals in a test by Dunnett.

rats [3] = assay: Staircase test; format: in vivo; conditions: 20 mg/kg; 1 hour after administration; counted for 3 minutes
Description: The apparatus and the method used are described by THIEBOT et al [Psychol-pharmacologia (Berlin), 1973, Vol. 31, p. 77]. The experiment was carried out on groups of 15 inexperienced rats and the animals were put individually in the enclosure 1 hour after administration of the compound studied. The number of straightenings up and the number of steps claimed were counted for 3 minutes.

rats [4] = assay: Plate test in rats (electric shocks); format: in vivo; conditions: oral, 20 mg/kg, half an hour after administration, vs control
Description: as §1

Row | Structure (SMILES) | LD0 (maximum dose not causing any mortality in 8 days) (mice [1]) | IC50 (benzodiazepine receptors) [nM] | further results
1 | O=c1c2n[nH]c3ccccc3c-2nn1C1=NCCS1 [Example 10, 2,5-dihydro-(2-dihydrothiazol-2-yl)-3H-pyrazolo[4,3-c]cinnolin-3-one hydrochloride] | > 400 |  | 
2 | Cc1ccccc1-n1nc2c3ccccc3[nH]nc-2c1=O [Example 7, 2,5-dihydro-2-(2-methylphenyl)-3H-pyrazolo[4,3-c]cinnolin-3-one] | 200 |  | 
3 | O=c1c2n[nH]c3ccccc3c-2nn1-c1cccc(C(F)(F)F)c1 [Example 6, 2,5-dihydro-2-(3-trifluoromethylphenyl)-3H-pyrazolo[4,3-c]cinnolin-3-one] | > 400 |  | 
4 | O=c1c2n[nH]c3ccccc3c-2nn1-c1ccc(OCc2ccccc2)cc1 [Example 5, 2,5-dihydro-2-(4-benzyloxyphenyl)-3H-pyrazolo[4,3-c]cinnolin-3-one] | > 400 | 18 | 
5 | Cl.O=c1c2n[nH]c3ccccc3c-2nn1-c1ccccn1 [Example 8, 2,5-dihydro-(2-pyridin-2-yl)-3H-pyrazolo[4,3-c]cinnolin-3-one hydrochloride] | > 400 | 3.1 | anxiety reducing activity (plate test) (mice [2]): good anxiety reducing activity; increase in number of shocks (mice [2]; mice, oral, 100 mg/kg, half an hour after administration, vs control): 50%
6 | O=c1c2n[nH]c3ccccc3c-2nn1-c1ccc(Cl)cc1 [Example 2, 2-(4-chlorophenyl)-2,5-dihydro-3H-pyrazolo[4,3-c]cinnolin-3-one] |  | 3.7 | 
7 | O=c1c2n[nH]c3ccccc3c-2nn1-c1nccs1 [Example 9, 2,5-dihydro-(2-thiazol-2-yl)-3H-pyrazolo[4,3-c]cinnolin-3-one hydrochloride] |  | 3.1 | 
8 | COc1ccc(-n2nc3c4ccccc4[nH]nc-3c2=O)cc1 [Example 4, 2,5-dihydro-2-(4-methoxyphenyl)-3H-pyrazolo[4,3-c]cinnolin-3-one] | > 400 | 2.5 | 
9 | O=c1c2n[nH]c3ccccc3c-2nn1-c1ccccc1 [Example 3, 2,5-dihydro-2-phenyl-3H-pyrazolo[4,3-c]cinnolin-3-one] | > 200 | 0.9 | anxiety reducing activity (plate test) (mice [2]): good anxiety reducing activity; increase in number of shocks (mice [2]; mice, oral, 50 mg/kg, half an hour after administration, vs control): 50%
10 | O=c1c2n[nH]c3ccc(Cl)cc3c-2nn1-c1ccccc1 [Example 1, 8-chloro-2,5-dihydro-2-phenyl-3H-pyrazolo[4,3-c]cinnolin-3-one] | > 400 |  | decrease in number of straightenings up (rats [3]): 46%; increase in number of shocks delivered (mice [2]; mice, oral, 20 mg/kg, half an hour after administration, vs control): 63%; increase in number of shocks delivered (rats [4]): 41%
